Experimental data: PubChem BioAssay (NCI)
“And” between values parts separate entries of the source, which are not always exact repeats. Equal entries are not always repeated.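 Briefly, cells in 96-well plates were exposed to five compound concentrations for 48 h, and endpoints were estimated by linear interpolation. At the GI50, growth is halved. TGI denotes the concentration required for complete inhibition of growth.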

Tests used:
Assay in all cases: growth of human tumour cells (NCI), 48 h
IGROV1 ovarian = tested on: IGROV1 ovarian
SF-295 CNS = tested on: SF-295 CNS
HCC-2998 colon = tested on: HCC-2998 colon
MDA-MB-231 breast = tested on: MDA-MB-231 breast
ACHN renal = tested on: ACHN renal
OVCAR-4 ovarian = tested on: OVCAR-4 ovarian
A549 NSCLC = tested on: A549 NSCLC
UO-31 renal = tested on: UO-31 renal
SR leukemia = tested on: SR leukemia
K-562 leukemia = tested on: K-562 leukemia

Row | SMILES | GI50 (IGROV1 ovarian) [µM] | TGI (IGROV1 ovarian) [µM] | GI50 (SF-295 CNS) [µM] | TGI (SF-295 CNS) [µM] | GI50 (HCC-2998 colon) [µM] | TGI (HCC-2998 colon) [µM] | GI50 (MDA-MB-231 breast) | TGI (MDA-MB-231 breast) | GI50 (ACHN renal) | TGI (ACHN renal) | GI50 (OVCAR-4 ovarian) [µM] | TGI (OVCAR-4 ovarian) [µM] | GI50 (A549 NSCLC) | TGI (A549 NSCLC) | GI50 (UO-31 renal) [µM] | TGI (UO-31 renal) [µM] | TGI (SR leukemia) [µM] | TGI (K-562 leukemia) [µM] | GI50 (K-562 leukemia) [µM]
1 | Cc1ccc([I+]c2ccc(C)cc2)cc1 | 4.42 | > 100 | 1.86 | 8.74 | 6.44 | > 100 | 25.1 µM | > 100 µM | 14.9 µM | > 100 µM | 7.75 | > 100 | 4.22 µM | > 100 µM | 21.3 | > 100 |  |  | 
2 | CC(=O)OC1C(COC(N)=O)OC(n2c(-c3ccc(C)cc3)cc(-c3ccccc3)c(C#N)c2=O)C(OC(C)=O)C1OC(C)=O (centres undefined) |  | > 100 |  | > 100 |  | > 100 |  |  |  | > 100 µM |  | > 100 |  | > 100 µM |  | > 100 | > 100 | > 100 | 
3 | CC[n+]1c(/C=C/c2ccc(N3CCCC3)cc2)cccc1/C=C/c1ccc(N2CCCC2)cc1 | 0.532 | 2.4 | 0.263 | 1.9 | 0.181 | 0.338 | 0.264 µM and 0.268 µM | 1.29 µM and 1.11 µM | 0.18 µM and 0.24 µM | 0.915 µM and 1.14 µM | 0.0386 | 1.29 | 0.296 µM and 0.26 µM | 1.65 µM and 0.919 µM | 0.376 | 1.6 |  | > 100 | 
4 | CN(CC(=O)O)S(=O)(=O)c1ccc(Cl)cc1 |  | > 100 |  | > 100 |  | > 100 |  |  |  | > 100 µM |  | > 100 |  | > 100 µM |  | > 100 |  | > 100 | 
5 | Cc1ccc(S(=O)OC2c3ccccc3Cc3ccccc32)cc1 (centres undefined) |  | 45.6 |  | 62.6 |  | 33.8 |  |  |  | 49 µM |  | 33.2 |  | 87.2 µM |  | 45.7 | 70.8 | 62.1 | 
6 | COC(=O)C(=O)C(C(=O)C(=O)Nc1ccccc1C(N)=O)c1nc2ccc([N+](=O)[O-])cc2[nH]c1=O (centres undefined) |  | > 100 |  | > 100 |  | > 100 |  |  |  | > 100 µM |  | > 100 |  | > 100 µM |  | > 100 | > 100 | > 100 | 
7 | S=C1NC(c2ccccc2)=NC(Cc2ccccc2)(c2ccccc2)N1c1ccccc1 (centres undefined) |  | > 100 |  | > 100 |  | > 100 |  |  |  | > 100 µM |  | > 100 |  | > 100 µM |  | > 100 | > 100 | > 100 | 
8 | COc1cc(/C=C(\C)c2ccc3c(c2)OCO3)cc(OC)c1OC |  | > 100 |  | > 100 |  | > 100 |  |  |  | 49.3 µM |  | > 100 |  | > 100 µM |  | 79.2 | 59.7 | > 100 | 
9 | Cc1cn2c(/C=N/NC3=NCCN3)c(-c3ccc(Cl)c([N+](=O)[O-])c3)nc2s1 |  |  |  |  | 2.12 | > 50 | 0.778 µM | 1.57 µM |  |  |  |  |  |  | 0.715 | 1.44 |  | 2.34 | 1.08
10 | O=C(O)c1cc(C(=O)C(=O)c2cc(C(=O)O)c(O)c3ccccc23)c2ccccc2c1O |  | > 100 |  | > 100 |  | > 100 |  | > 100 µM |  | > 100 µM |  | > 100 |  | > 100 µM |  | > 100 |  | > 100 | 
11 | Fc1ccc(-c2nn3c(COc4ccccc4Cl)nnc3s2)cc1Oc1ccccc1 | 31 | > 100 | 18.9 | 50.9 | 28.6 | 77.4 | 17.8 µM | 45.6 µM | 25 µM | 65.3 µM | 72.2 | > 100 | 40.2 µM | > 100 µM | 27.1 | > 100 |  | > 100 | > 100
12 | COc1cc2cc(Oc3ccc(NC(=O)Nc4ccc(F)c(C(F)(F)F)c4)cc3)c(C)nc2cc1OCCN1CCOCC1 | 2.69 | 19.5 | 1.35 | 4.22 | 5.34 | 16.7 | 2.83 µM | 9.02 µM | 2.3 µM | 11.4 µM | 0.706 | 5.23 | 2.57 µM | 34.3 µM | 1.71 | 10.6 |  | 10.3 | 0.88
13 | CCOC(=O)Cc1csc(Nc2nc(O)c(C3=c4ccccc4=NC3=O)s2)n1 | 27.2 | 69 | 32.1 | 75.3 | 29.8 | > 100 | 29.1 µM | 72.1 µM | 23 µM | 47.3 µM | 42.3 | > 100 | 32.4 µM | > 100 µM | 23 | 51.6 |  | > 100 | 37.2
14 | Cc1ccc(C)c(N2C(=O)C(=O)C(c3nc4ccccc4s3)C(=O)C2=O)c1 |  | > 100 |  | > 100 |  | > 100 |  |  |  | > 100 µM |  | > 100 |  | > 100 µM |  | > 100 |  | > 100 | 
15 | O=C1C2=C(c3ccccc31)C(c1ccccc1Cl)NC(=S)N2 (centres undefined) |  | > 100 |  | > 100 |  | > 100 |  |  |  | > 100 µM |  | > 100 |  | > 100 µM |  | > 100 |  | > 100 | 
16 | N#CCC(=O)N/N=C(/C(=O)Nc1ccccc1)C1C(=O)N(c2ccccc2)N=C1N (centres undefined) |  | > 100 |  | > 100 |  | > 100 |  |  |  | > 100 µM |  | > 100 |  | > 100 µM |  | > 100 | > 100 | > 100 | 
17 | Cc1cc2c(=O)cc(-c3ccc(O)cc3)oc2c(C(=O)O)c1C |  | > 100 |  | > 100 |  | > 100 |  |  |  | > 100 µM |  | > 100 |  | > 100 µM |  | > 100 | > 100 | > 100 | 
18 | Cc1ccccc1C(C#N)/C(=N/NC(N)=S)C(=O)Nc1c(C)cccc1C (centres undefined) |  | > 100 |  | > 100 |  | > 100 |  |  |  | > 100 µM |  | > 100 |  | > 100 µM |  | > 100 |  |  | 
19 | CC12OC(C(=O)C13CC3)C1C(=O)c3cccc(O)c3C(=O)C12 (centres undefined) | 12.2 | > 100 | 2.68 | 22.6 | 18.5 | 46.7 | 2.43 µM | 16.3 µM | 2.95 µM | > 39.1 µM | 3.16 | 12 | 28.7 µM | > 100 µM | 23.1 | > 100 |  |  | 
